Experimental data as given in patent publication US4695577A, “Anti-hypertensive agents” (University of Miami, priority 1979, dated 1987).

Columns and labels:
human urinary ACE = target: T1, human urinary ACE (Homo sapiens, UniProt P12821); experiment: ACE Activity Assay (hydrolysis of Benzoyl-GlyHisLeu); assay type: biochemical; conditions: purified human urinary ACE, in vitro, pH 8.0, 37° C; read-out: I50
T1 construct: The enzyme preparation was ACE purified from human urine; from tissue; host or cells: human urine
T1 sequence (P12821 30-1232 limits assumed): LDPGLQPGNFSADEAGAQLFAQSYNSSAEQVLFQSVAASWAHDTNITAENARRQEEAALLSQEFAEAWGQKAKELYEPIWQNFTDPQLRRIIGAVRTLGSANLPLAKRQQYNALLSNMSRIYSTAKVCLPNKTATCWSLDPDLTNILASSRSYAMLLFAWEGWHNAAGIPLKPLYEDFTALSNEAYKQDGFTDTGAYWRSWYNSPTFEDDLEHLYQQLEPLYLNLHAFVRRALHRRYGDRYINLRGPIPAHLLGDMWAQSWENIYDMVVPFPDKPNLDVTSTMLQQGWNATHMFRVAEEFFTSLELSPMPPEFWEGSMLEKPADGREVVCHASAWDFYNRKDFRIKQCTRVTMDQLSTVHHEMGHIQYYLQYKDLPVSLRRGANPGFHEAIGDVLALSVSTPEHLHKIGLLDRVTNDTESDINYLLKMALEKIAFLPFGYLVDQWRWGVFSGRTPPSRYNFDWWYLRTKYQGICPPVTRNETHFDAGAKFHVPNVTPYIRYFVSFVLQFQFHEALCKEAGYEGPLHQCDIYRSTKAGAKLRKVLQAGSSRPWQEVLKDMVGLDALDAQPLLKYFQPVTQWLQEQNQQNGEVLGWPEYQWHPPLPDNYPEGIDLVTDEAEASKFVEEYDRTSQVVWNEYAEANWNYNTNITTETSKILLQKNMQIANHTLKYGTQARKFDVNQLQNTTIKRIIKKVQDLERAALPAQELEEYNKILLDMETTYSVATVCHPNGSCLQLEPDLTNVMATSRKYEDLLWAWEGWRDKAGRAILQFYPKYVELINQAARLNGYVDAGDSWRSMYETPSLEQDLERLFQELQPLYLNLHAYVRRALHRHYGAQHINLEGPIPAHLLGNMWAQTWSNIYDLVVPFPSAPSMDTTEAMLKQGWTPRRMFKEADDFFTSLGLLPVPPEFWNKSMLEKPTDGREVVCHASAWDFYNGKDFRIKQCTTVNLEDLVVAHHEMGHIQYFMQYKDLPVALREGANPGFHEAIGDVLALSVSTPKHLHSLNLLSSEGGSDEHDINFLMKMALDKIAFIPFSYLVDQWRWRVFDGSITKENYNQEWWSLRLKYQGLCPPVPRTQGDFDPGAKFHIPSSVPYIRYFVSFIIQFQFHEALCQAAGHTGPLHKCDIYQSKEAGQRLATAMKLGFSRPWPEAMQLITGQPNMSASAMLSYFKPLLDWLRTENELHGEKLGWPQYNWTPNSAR
Method: These factors include the source of enzyme, its purity, the substrate used and its concentration, and the composition of the assay buffer. All I50 data reported herein have been performed with the same assay system and same enzyme (human urinary ACE) and with an approximately 1/2Km level of substrate and are therefore internally consistent.
To initiate the assay, 40 μl of enzyme and 10 μl of water or inhibitor dissolved in water were preincubated for five minutes at 37° C. […] To terminate the reaction, 1 ml of 0.1 M HCl was added, following which 1 ml of ethyl acetate was added. The mixture was agitated on a rotary mixer and centrifuged briefly to separate the phases.
An aliquot, 500 μl, of the ethyl acetate layer was transferred to a liquid scintillation vial containing 10 ml of Riafluor, trademark New England Nuclear Corporation, Boston, Mass. For determination of I50 values, enzyme activity in the presence of inhibitor at a series of different concentrations was compared to activity in the absence of inhibitor.

[1] = system: Blood pressure response to angiotensin I; experiment: Intravenous effectiveness: blood pressure response to angiotensin I in anesthetized rats; assay type: in vivo, rat; conditions: intravenous 2 μmol/kg
Method: Rats (190-290 g body weight) were fasted overnight and then anesthetized with intraperitoneal pentobarbital, 50-60 mg/kg. Tracheostomy was performed and the animals were ventilated mechanically. A cannula was inserted into a femoral vein for injection of angiotensin I, and a second cannula was inserted into a common carotid artery for direct measurement of arterial blood pressure. Heparin, 1,000 units, was injected via the femoral vein to prevent coagulation. Blood pressure was measured with a pressure transducer connected to a polygraph. The rats were injected with 400 ng/kg of angiotensin I in 20 μl of 0.9 g % NaCl; an amount of angiotensin I sufficient to raise mean arterial blood pressure by 35 mm Hg. After the responsiveness of a given rat to angiotensin I was established, the named compound at 23 μmole/kg (drug dissolved in 0.15 ml of H2 O plus 10 μl of 1 N NaHCO3 ), was given via a stomach tube. At timed intervals, the effects of 400 ng/kg of angiotensin I on mean arterial blood pressure were tested. Results are shown below:
Anesthetized rats were prepared as described in Example 35. After the responsiveness of a given rat to angiotensin I was established, the named compound, at 2 μmol/kg, in a volume of 15 μl of 0.01 N sodium bicarbonate, was injected via a femoral vein. At timed intervals, the effects of angiotensin I, 400 ng/kg, on mean arterial blood pressure were tested.

IC50 (human urinary ACE) [nM] | Compound | Blood pressure response to 400 ng/kg angiotensin I ([1]; 3 min) | Blood pressure response to 400 ng/kg angiotensin I ([1]; 9 min) | Blood pressure response to 400 ng/kg angiotensin I ([1]; 13 min)
34 | C[C@H](CSC(=O)[C@H](Cc1ccccc1)NC(=O)OC(C)(C)C)C(=O)N1CCC[C@H]1C(=O)O [Example 13, N^α -[3-(N^α -Tertiary-Butyloxycarbonyl-L-Phenylalanylthio)-2-D-Methylpropanoyl]-L-Proline] | 19 % of control | 19 % of control | 22 % of control
7.5 | C[C@H](CSC(=O)[C@H](Cc1ccccc1)NC(=O)C1CCCC1)C(=O)N1CCC[C@H]1C(=O)O [Example 24, N^α -[3-(N^α -cyclopentylcarbonyl-L-phenylalanylthio)-2-D-methylpropanoyl]-L-proline] |  |  | 
